Measured values as given in ChEMBL document CHEMBL3272158, “2-Azabicyclo (2.2.2)octane analogues of the prodine analgetics” (J Med Chem, 1976).
Active and inactive are the calls of the source. The calls are words filed in the database; no cut-off is given here.

Key:
Rattus norvegicus [1] = assay: Analgetic activity in albino rat at 100 mg/kg, ip measured 15 mins interval by tail-flick method; format: functional, organism-based; design: dose 100 mg/kg
Rattus norvegicus [2] = assay: Analgetic activity in ip dosed albino rat measured 15 mins interval by tail-flick method; format: functional; settings: 0.25 h
[3] = Toxicity in ip dosed albino rat; format: organism-based; settings: in vivo

Row | Structure (SMILES) | Activity (Rattus norvegicus [1]) | ED50 (Rattus norvegicus [2]) | LD50 [3]
1 | CCC(=O)O[C@@]1(c2ccccc2)C[C@H]2CC[C@H]1CN2C | inactive | – | –
2 | CCC(=O)OC1(c2ccccc2)CCN(C)CC1C (racemic) [ALPHAPRODINE] | – | 1.4 mg/kg | 22 mg/kg
3 | CCC(=O)O[C@@]1(c2ccccc2)C[C@H]2CC[C@H]1N(C)C2 (relative stereo) | inactive | 3.1 mg/kg | 12.3 mg/kg
4 | CCC(=O)O[C@@]1(c2ccccc2)C[C@H]2CC[C@H]1N(Cc1ccccc1)C2 (relative stereo) | inactive | – | –
5 | CCC(=O)O[C@]1(c2ccccc2)C[C@H]2CC[C@H]1N(C)C2 (relative stereo) | inactive | – | –
